# Data from patent US4598065A, “Use of peptides as medicaments and certain novel peptides” (Novo Industri A/S, priority 1980, dated 1986).
# Experiments:
# NMRI mice = assay: Acute toxicity study in NMRI mice; type: in vivo; conditions: 10 mg i.v. bolus, NMRI mice 20 g (500 mg/kg body weight)
# adenylate cyclase = conditions: in vitro
# From the text: The metabolic effects of glucagon1-21, glucagon1-26 and des(22-26)-glucagon, as exemplified by their lipolytic effect on rat free fat cells in vitro and their effect on the activation of the adenylate cyclase in vitro, are negligible compared with the metabolic effects of glucagon.
# rat free fat cells = assay: Lipolytic effect on rat free fat cells in vitro; type: cell-based
# [1] = test system: electrically stimulated guinea pig ileum; assay: Contractions of the electrically stimulated guinea pig ileum in vitro; type: cell-based
# From the text: 10^-5 M glucagon caused 83±4% (X±sd, N=3) ihibition compared to 78±5% for glucagon1-21. The effects of 10^-6 M was 50±3% and 52±5%, respectively, and of 10^-7 M: 27±3% for either peptide.
# rats = assay: Metabolic effects (hyperglycemia, insulin release) after administration to rats in vivo; parameters: species or system rat
# gall flow in rats = assay: Gall flow in rats in vivo; parameters: species or system rat
# [2] = test system: rabbit gall bladder preparation; assay: Relaxation of submaximally contracted rabbit gall bladder preparation in vitro; type: cell-based
# [3] = test system: isolated perfused rat pancreas; assay: Insulin release from the isolated perfused rat pancreas; type: cell-based; conditions: infused to the same concentration as glucagon
# bile flow in rabbits = assay: Bile flow in rabbits with catheters in the bile duct; type: in vivo, rabbit; conditions: for Amount of bile: 200 μg s.c. given after 45 minutes
# Description: One rex rabbit weighing 2.0 kg was equipped with a catheter in the bile duct during nembutal anaesthesia on the day before the experiment. On the day of the experiment the bile was collected for periods of 15 minutes.
# After 45 minutes 200 μg glucagon was administered subcutaneously in 1 ml of 0.9% saline containing 0.1% human serum albumin. After 120 minutes 154 μg glucagon1-21 was administered subcutaneously in 1 ml of the above solution. After 195 minutes the placebo (vide Experiment C) was administered.
# [4] = test system: intestinal motility in rabbits; assay: Intestinal motility in anaesthetized rabbits in vivo (spasmolytic effect, balloon in jejunum); parameters: species or system rabbit; conditions: for spasmolytic effect: Experiment B, rabbit 2.32 kg
# Description: One male rabbit weighing 2.56 kg was anaesthetized with nembutal after an overnight fast. The position of the balloon used for measurement of intestinal motility was 1 meter from pylorus in the jejunum. The motility was registered before and after intraveneous administration of 77 μg glucagon1-21 in 1 ml 0.9% saline containing 0.1% human serum albumin. […] The onset of effect was 1 minute after the administration and the duration of effect was 11 minutes.
# A male rabbit weighing 2.32 kg was treated as described in Experiment A with the following dosages: […]
# [5] = test system: pentagastrin stimulated gastric acid secretion in gastric fistula cats; assay: Pentagastrin stimulated gastric acid secretion in cats with chronic gastric fistulas; type: in vivo, cat
# Description: 1 μg/kg pentagastrin subcutaneously administered to gastric fistula cats caused an increase in gastic acid secretion of 856±71 μEq (Eq designates equivalent) acid (X±S.E.M., N=18). When 2 μg/kg glucagon1-21 was administered subcutaneously at the same time as 1 μg/kg pentagastrin the increase in acid output was only 417±104 μEq acid (N=6).
# In a male cat weighing approx. 4.5 kg equipped with a cronic gastric fistula the gastric acid secretion was stimulated with 4.5 μg pentagastrin (Peptavlon®) in a volume of 1 ml 0.9% saline containing 0.1% human serum albumin subcutaneously in the neck. In 8 experiments 1 ml placebo (0.9% saline with 0.1% human serum albumin) was administered subcutaneously through another cannula in the neck at the same time as the administration of pentagastrin. In 2 experiments 9 μg of glucagon1-21 in 1 ml of the above solution was administered simultaneously with the administration of pentagastrin. Gastric acid secretion was collected over periods of 15 minutes and titrated with 0.01N NaOH. The increase in acid secretion after the administration of pentagastrin was calculated as μEq acid excreted over 11/2 hrs. after the administration subtracting the basal acid secretion before administration of pentagastrin. After administration of 4.5 μg pentagastrin plus placebo the increase in gastric acid secretion was 729± 89 μEq acid (X±S.E.M., N=8). […]
# [6] = i.v. bolus, 100 to 200 μg glucagon or 77 to 154 μg glucagon1-21, anesthetized rabbits 2.5 to 3.0 kg
compound,measurement,setting,value
"CC(C)C[C@H](NC(=O)[C@H](Cc1ccc(O)cc1)NC(=O)[C@H](CCCCN)NC(=O)[C@H](CO)NC(=O)[C@H](Cc1ccc(O)cc1)NC(=O)[C@H](CC(=O)O)NC(=O)[C@H](CO)NC(=O)[C@@H](NC(=O)[C@H](Cc1ccccc1)NC(=O)[C@@H](NC(=O)CNC(=O)[C@H](CCC(N)=O)NC(=O)[C@H](CO)NC(=O)[C@@H](N)Cc1c[nH]cn1)[C@@H](C)O)[C@@H](C)O)C(=O)N[C@@H](CC(=O)O)C(=O)N[C@@H](CO)C(=O)N[C@@H](CCCNC(=N)N)C(=O)N[C@@H](CCCNC(=N)N)C(=O)N[C@@H](C)C(=O)N[C@@H](CCC(N)=O)C(=O)N[C@@H](CC(=O)O)C(=O)O [glucagon1-21, glucagon-(1-21)-heneicosapeptide]",deaths,NMRI mice,No deaths occurred
"CC(C)C[C@H](NC(=O)[C@H](Cc1c[nH]c2ccccc12)NC(=O)[C@H](CCC(N)=O)NC(=O)[C@@H](NC(=O)[C@H](Cc1ccccc1)NC(=O)[C@H](CC(=O)O)NC(=O)[C@H](CCC(N)=O)NC(=O)[C@H](C)NC(=O)[C@H](CCCNC(=N)N)NC(=O)[C@H](CCCNC(=N)N)NC(=O)[C@H](CO)NC(=O)[C@H](CC(=O)O)NC(=O)[C@H](CC(C)C)NC(=O)[C@H](Cc1ccc(O)cc1)NC(=O)[C@H](CCCCN)NC(=O)[C@H](CO)NC(=O)[C@H](Cc1ccc(O)cc1)NC(=O)[C@H](CC(=O)O)NC(=O)[C@H](CO)NC(=O)[C@@H](NC(=O)[C@H](Cc1ccccc1)NC(=O)[C@@H](NC(=O)CNC(=O)[C@H](CCC(N)=O)NC(=O)[C@H](CO)NC(=O)[C@@H](N)Cc1c[nH]cn1)[C@@H](C)O)[C@@H](C)O)C(C)C)C(=O)O [glucagon1-26, glucagon-(1-26)-hexacosapeptide]",effect on the activation of the adenylate cyclase (metabolic effect) compared with glucagon,adenylate cyclase,negligible
same,lipolytic effect (metabolic effect) compared with glucagon,rat free fat cells,negligible
same,"inhibitory effect on the amplitude of the contractions, potency compared with glucagon",[1]; electrically stimulated guinea pig ileum in vitro,almost the same potency as glucagon
same,metabolic effects after administration in vivo,rats,No metabolic effects
glucagon,effect on gall flow,gall flow in rats,increase in gall flow
same,inhibition of contraction amplitude,"[1]; 10^-5 M, X±sd, N=3",83±4%
same,inhibition of contraction amplitude,[1]; 10^-6 M,50±3%
same,inhibition of contraction amplitude,[1]; 10^-7 M,27±3%
same,relaxation of gall bladder strip,"[2]; 10^-6 M, strip contracted with 0.1 μg/ml cholecystochinin octapeptide",39%
same,ED50 (relaxation of gall bladder strip),[2]; strip contracted with 0.1 μg/ml cholecystochinin octapeptide,2700 nM
same,"relaxing effect on gall bladder preparation, relative potency",[2]; submaximally contracted rabbit gall bladder preparation in vitro,almost equipotent
same,insulin release,[3],releases insulin
same,gall flow immediately after the administration,bile flow in rabbits; rabbits with catheters in the bile duct,decrease in gall flow
same,subsequent bile flow,"bile flow in rabbits; rabbits with catheters in the bile duct, after the initial decrease",increase in bile flow to quantities higher than before the administration
same,Amount of bile,"bile flow in rabbits; sampling period 45-60 minutes, one rex rabbit 2.0 kg",0.20 mL
same,Amount of bile,bile flow in rabbits; sampling period 60-75 minutes,0.25 mL
same,Amount of bile,bile flow in rabbits; sampling period 75-90 minutes,3.30 mL
same,Amount of bile,bile flow in rabbits; sampling period 90-105 minutes,2.80 mL
same,Amount of bile,bile flow in rabbits; sampling period 105-120 minutes,2.00 mL
same,spasmolytic effect,[4]; 200 μg i.v.,no detectable effect
same,spasmolytic effect,[4]; 400 μg,distinct effect
same,duration of inhibition of intestinal motility,[4]; [6],about ten
same,onset of inhibition of intestinal motility after administration,[4]; [6],one
same,effect on pentagastrin stimulated gastric acid secretion,[5],inhibit pentagastrin stimulated gastric acid secretion
